Source: patent US20240025862A1, “SUBSTITUTED N-PHENYLURACILS AND SALTS THEREOF, AND USE THEREOF AS HERBICIDAL ACTIVE SUBSTANCES” (Bayer Aktiengesellschaft, priority 2020, published 2024)

Columns and labels:
Type in all cases: in vivo
[1] = system: Amaranthus retroflexus (AMARE); test: Post-emergence herbicidal action, greenhouse pot test; conditions: Amaranthus retroflexus, 504 h, rated visually after about 3 weeks vs untreated controls, 100% = plants have died
How it was run: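 Activity was scored by eye about 3 weeks after treatment against untreated plants, where 100% means dead plants and 0% means no difference. Plants at the one-leaf stage received a foliar spray of WP or EC formulations in water plus 0.5% additive (600 l/ha, up to 20 g/ha). Plants were grown in sandy loam pots in a greenhouse for 2–3 weeks before spraying.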

[2] = system: Alopecurus myosuroides (ALOMY); test: Post-emergence herbicidal action, greenhouse pot test (also comparative test C)
How it was run: (§1)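 Green parts of one-leaf-stage plants are sprayed at 600 l/ha with formulated compound plus 0.5% additive, then kept under optimum greenhouse conditions for about 3 weeks. Damage is scored visually, where 100% means dead plants and 0% means no difference from controls.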

[3] = system: Echinochloa crus-galli (ECHCG); test: as above
How it was run: as §1

[4] = system: Matricaria inodora (MATIN); test: as above
How it was run: as §1

Setaria viridis (SETVI) = test: as above
How it was run: as §1

Oryza sativa (ORYSA) = test: Post-emergence crop plant compatibility, greenhouse pot test (also comparative test C)
How it was run: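 Visual damage versus untreated plants (0% = like control, 100% = plants died) was scored about 3 weeks after a post-emergence spray in greenhouse pots. Treatment: one-leaf stage, WP or EC in water at 600 l/ha with 0.5% additive; a/b/c mark different dosages on the same crop.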

[5] = system: Abutilon theophrasti (ABUTH); test: Pre-emergence herbicidal action, greenhouse pot test; conditions: scored after about 3 weeks
Excerpt: (§2) Seeds of monocotyledonous and dicotyledonous weed plants and crop plants were placed in plastic or organic planting pots and covered with soil. The compounds of the invention, formulated in the form of wettable powders (WP) or as emulsion concentrates (EC), were then applied to the surface of the covering soil as aqueous suspension or emulsion with addition of 0.5% additive at a water application rate equivalent to 600 l/ha (converted). After the treatment, the pots were placed in a greenhouse and kept under good growth conditions for the test plants. After about 3 weeks, the effect of the preparations was scored visually in comparison with untreated controls as percentages. For example, 100% activity=the plants have died, 0% activity=like control plants.
(§3) Tables B1 to B10 below show the effects of selected compounds of the general formula (I) according to Tables I.1 to I.33 on various harmful plants and at an application rate corresponding to 80 g/ha and less, which were obtained by the experimental method specified above. The appendices “a”, “b” and “c” give differentiation by different dosage with otherwise the same harmful plants tested.

[6] = system: Alopecurus myosuroides (ALOMY); test: as above; conditions: scored after about 3 weeks
Excerpt: as §2, §3

[7] = system: Amaranthus retroflexus (AMARE); test: as above; conditions: scored after about 3 weeks
Excerpt: as §2, §3

Avena fatua (AVEFA) = test: as above; conditions: 80 g/ha, scored after about 3 weeks
Excerpt: as §2, §3

[8] = system: Digitaria sanguinalis (DIGSA); test: as above; conditions: scored after about 3 weeks
Excerpt: as §2, §3

[9] = system: Echinochloa crus-galli (ECHCG); test: as above; conditions: 80 g/ha, scored after about 3 weeks
Excerpt: as §2, §3

Lolium rigidum (LOLRI) = test: as above; conditions: 80 g/ha, scored after about 3 weeks
Excerpt: as §2, §3

[10] = system: Matricaria inodora (MATIN); test: as above; conditions: scored after about 3 weeks
Excerpt: as §2, §3

[11] = system: Pharbitis purpurea (PHBPU); test: as above; conditions: scored after about 3 weeks
Excerpt: as §2, §3

Veronica persica (VERPE) = test: as above; conditions: scored after about 3 weeks
Excerpt: as §2, §3

Zea mays (ZEAMX) = test: Pre-emergence crop plant compatibility, greenhouse pot test; conditions: 20 g/ha
Excerpt: as §2
The observed effects on selected crop plants are reported here in comparison to the untreated controls (values in %).

[12] = application rate of 5 g or less per hectare, tables C1 to C4
[13] = comparative test C, application rate 1.25 g/ha

## COCCOC(=O)COc1ccccc1Oc1cc(-n2c(=O)cc(C(F)(F)F)n(C)c2=O)c(F)cc1Cl [I.7-1, 2-Methoxyethyl (2-{2-chloro-4-fluoro-5-[3-methyl-2,6-dioxo-4-(trifluoromethyl)-3,6-dihydropyrimidin-1(2H)-yl]phenoxy}phenoxy)acetate]
[1]; 1.25 g/ha, read-out: Post-emergence action at 1.25 g/ha against AMARE in %
  pest or weed control at 1.25 g/ha: 100%
[1]; 5 g/ha, read-out: Post-emergence action at 5 g/ha against AMARE in %
  pest or weed control at 5 g/ha: 100%
[1]; 20 g/ha, read-out: Post-emergence action at 20 g/ha against AMARE in %
  pest or weed control at 20 g/ha: 100%
[2]; Alopecurus myosuroides, 504 h, 5 g/ha, rated visually after about 3 weeks vs untreated controls, 100% = plants have died, read-out: Post-emergence action at 5 g/ha against ALOMY in %
  pest or weed control at 5 g/ha: 80%
[2]; Alopecurus myosuroides, 504 h, 20 g/ha, rated visually after about 3 weeks vs untreated controls, 100% = plants have died, read-out: Post-emergence action at 20 g/ha against ALOMY in %
  pest or weed control at 20 g/ha: 100%
[2]; [12]
  herbicidal efficacy against ALOMY by comparison with literature compound a-17 / 3-14: distinct improvement in herbicidal efficacy
[3]; 1.25 g/ha, rated visually after about 3 weeks vs untreated controls, 100% = plants have died
  Post-emergence action at 1.25 g/ha against ECHCG in %: 90%
[3]; Echinochloa crus-galli, 504 h, dosage 5 g/ha, read-out: Post-emergence action against ECHCG in %
  pest or weed control at 5 g/ha: 100%
[3]; Echinochloa crus-galli, 504 h, dosage 20 g/ha, read-out: Post-emergence action against ECHCG in %
  pest or weed control at 20 g/ha: 90%
[3]; [12]
  herbicidal efficacy against ECHCG by comparison with literature compound a-17 / 3-14: distinct improvement in herbicidal efficacy
[3]; [13]
  ECHCG (efficacy in %): 90%
[4]; Tripleurospermum inodorum, 504 h, dosage 1.25 g/ha, read-out: Post-emergence action against MATIN in %
  pest or weed control at 1.25 g/ha: 100%
[4]; Tripleurospermum inodorum, 504 h, dosage 5 g/ha, read-out: Post-emergence action against MATIN in %
  pest or weed control at 5 g/ha: 100%
[4]; Tripleurospermum inodorum, 504 h, dosage 20 g/ha, read-out: Post-emergence action against MATIN in %
  pest or weed control at 20 g/ha: 100%
[4]; [12]
  herbicidal efficacy against MATIN by comparison with literature compound a-17 / 3-14: distinct improvement in herbicidal efficacy
[4]; [13]
  MATIN (efficacy in %): 100%
Setaria viridis (SETVI); Setaria viridis, 504 h, 20 g/ha, read-out: Post-emergence action against SETVI
  pest or weed control at 20 g/ha: 100%
Setaria viridis (SETVI); Setaria viridis, 504 h, dosage 1.25 g/ha, read-out: Post-emergence action against SETVI in %
  pest or weed control at 1.25 g/ha: 100%
Setaria viridis (SETVI); Setaria viridis, 504 h, dosage 5 g/ha, read-out: Post-emergence action against SETVI in %
  pest or weed control at 5 g/ha: 100%
Setaria viridis (SETVI); [12]
  herbicidal efficacy against SETVI by comparison with literature compound a-17 / 3-14: distinct improvement in herbicidal efficacy
Setaria viridis (SETVI); [13]
  SETVI (efficacy in %): 100%
Oryza sativa (ORYSA); application rate of 1.25 g per hectare, table C5
  compatibility with respect to the crop plant Oryza sativa (ORYSA) by comparison with literature compound a-17 / 3-14: distinct improvement in compatibility
Oryza sativa (ORYSA); comparative test C, application rate 1.25 g/ha, crop plant compatibility
  ORYSA (efficacy in %): 0%
[5]; 20 g/ha
  Pre-emergence action against ABUTH in %: 100%
[5]; 80 g/ha
  Pre-emergence action against ABUTH in %: 100%
[6]; 20 g/ha
  Pre-emergence action against ALOMY in %: 80%
[6]; 80 g/ha
  Pre-emergence action against ALOMY in %: 100%
[7]; 20 g/ha
  Pre-emergence action against AMARE in %: 100%
[7]; 80 g/ha
  Pre-emergence action against AMARE in %: 100%
Avena fatua (AVEFA)
  Pre-emergence action against AVEFA in %: 100%
[8]; 20 g/ha
  Pre-emergence action against DIGSA in %: 100%
[8]; 80 g/ha
  Pre-emergence action against DIGSA in %: 100%
[9]
  Pre-emergence action against ECHCG in %: 90%
Lolium rigidum (LOLRI)
  Pre-emergence action against LOLRI in %: 100%
[10]; 20 g/ha
  Pre-emergence action against MATIN in %: 100%
[10]; 80 g/ha
  Pre-emergence action against MATIN in %: 100%
[11]; 20 g/ha
  Pre-emergence action against PHBPU in %: 100%
[11]; 80 g/ha
  Pre-emergence action against PHBPU in %: 100%
Veronica persica (VERPE); 20 g/ha
  Pre-emergence action against VERPE in %: 100%
Veronica persica (VERPE); 80 g/ha
  Pre-emergence action against VERPE in %: 100%
Zea mays (ZEAMX)
  Pre-emergence action against ZEAMX in %: 0%
